The results in this text go back to US9770195B2, “Automated scratch detection system and signal processing algorithm for the study of pruritus in animals” (The Regents of the University of California, priority 2012, dated 2017).

In experiment [1] the test system is C57Bl/6 mice. As to the kind of experiment: Pruritogen-evoked hind paw scratching counted by the paw motion detector (PMD) in mice. Particulars: mouse; for scratching behavior evoked by the pruritogen: injection to dorsolateral neck, ipsilateral paw, 60 min; for dose response of scratching: histamine 0.111-11.1 g/mL, chloroquine 0.1-2 mg/mL, 48/80 0.125-0.5 mg/mL. It is filed as in vivo. An excerpt: Data acquisition is then initiated. […] The PMD detects the movement of a non-ferrous metal band placed around one hind paw of the rodent (for the mouse the band weight=0.1 g while for the rat the band weight=0.5 g). There are two distinct bands one for the rat and one for the mouse (see the band in Yaksh et al., 2001). The testing apparatus consists of cylindrical chambers (mouse: 8.5 cm diameter/22.5 cm tall; rat: 15 cm diameter/30 cm tall). Under each cylinder is a pair of circular concentric electromagnetic coils, which serve respectively as antennas for transmission and reception. […] The transmitter coil assembly is constructed to emit a 5-8 mW, 6-8 kHz, sinusoidal electromagnetic field (Blue Max 800 Precision scan search coil White's Electronics, Inc., OR). The detection principal is that Eddy currents created by the movements of the ferrous and nonferrous metals perturb the EM field. Such perturbations produce an output waveform and are subsequently detected (Yaksh et al., 2001). The analog signal from the sensing coil assembly is fed into a standard National Instruments based signal acquisition A-D converter system ([…] or PCI-MI0-16Xe-10 National Instruments Corp.) driven into a standard LabView based software (Lab view v.5.1 National Instruments Corporation, Austin, Tex.). The signal is filtered, amplified, and digitized (sampling rate of 1000 Hz, 12-bit resolution). This signal (conditioned signal in FIG. 2) is then entered and passed through a two component-triggering algorithm configured in the Lab view program. In the first phase, the processed signal is sent through an algorithm to establish a scratch movement trigger. In this phase, the processed signal is subjected to a “zero-crossing interval-peak height” analysis based on the signal amplitude in a sliding time window (see Yaksh et al., 2001). The range of voltages (1-0.01 V) over a moving 128-ms interval is configured to produce a continuous output waveform. […] The signal is then smoothed by using a non-weighted moving average filter. The smoothed range waveform is examined in real time by a peak-detection algorithm set to pick out spikes of >500 ms and amplitudes of >0.3 V. Each peak provided a trigger signal, which is represented by a red line on the automated system's display, see FIG. 3. The signal is then processed through a second level algorithm to define bursting. A high frequency scratching burst, which we will now call a microburst, is defined as multiple trigger signals occurring within a specified moving window time frame (e.g. 2 trigger signals within a 1.15 s time frame) without double counting trigger signals. […] Paw movement events meeting the criteria of a scratch microburst are captured and summed at 1-min increments by default (and can be summed from 1 s to 60 min increments). Summed data are stored in Microsoft Excel compatible spreadsheets.

In experiment [2] the test system is Holtzman rats. As to the kind of experiment: SQ 48/80-evoked homolateral scratching in the rat (PMD, Example 2). It is filed as in vivo. Particulars: diphenhydramine 1 mg/kg IP with SQ 48/80. An excerpt: Data acquisition is then initiated.
The PMD detects the movement of a non-ferrous metal band placed around one hind paw of the rodent (for the mouse the band weight=0.1 g while for the rat the band weight=0.5 g). There are two distinct bands one for the rat and one for the mouse (see the band in Yaksh et al., 2001). The testing apparatus consists of cylindrical chambers (mouse: 8.5 cm diameter/22.5 cm tall; rat: 15 cm diameter/30 cm tall). Under each cylinder is a pair of circular concentric electromagnetic coils, which serve respectively as antennas for transmission and reception. Outer coil diameters for the mouse and rat are 12 cm and 20 cm, respectively. The transmitter coil assembly is constructed to emit a 5-8 mW, 6-8 kHz, sinusoidal electromagnetic field (Blue Max 800 Precision scan search coil White's Electronics, Inc., OR). The detection principal is that Eddy currents created by the movements of the ferrous and nonferrous metals perturb the EM field. Such perturbations produce an output waveform and are subsequently detected (Yaksh et al., 2001).

Experiment [3] relates to C57Bl/6 mice. Particulars: mouse; for effect on chloroquine (1 mg/mL) evoked scratching: diphenhydramine 1 mg/kg IP.

Entries after “also recorded” stand apart in the source; their conditions may differ. Like-named read-outs stand apart in the source and are kept apart here.

Consider `CCN(CC)CCCC(C)Nc1ccnc2cc(Cl)ccc12` (stereo not drawn) [chloroquine], for which the “cumulative macroburst counts, 48/80 vs chloroquine” value in experiment [1] (1 hour, SQ 48/80 0.5 mg/mL vs chloroquine 1 mg/mL, N=5, p<0.001) is reported as “significantly different”. Also, in experiment [1], the “scratching behavior evoked by the pruritogen” value is recorded as “vigorous scratching; also recorded: significant scratching incidence”. In experiment [1] (over 1 hour after SQ 48/80 0.5 mg/mL or chloroquine 1 mg/mL, N=5, FFT transformed), this molecule had an average macrobursts of 8.4. Further, the “dose response of scratching” value in experiment [1] is “inverse u shape dose response curve”; in experiment [1] (listed as Chloroquine), “inverse U shaped dose response curve; also recorded: inverse u-shaped dose response curve”.

As for `CN(C)CCOC(c1ccccc1)c1ccccc1` [diphenhydramine, Diphenhydramine], in experiment [2], the “effect on 48/80-evoked scratching” value is “significant reduction in the observed magnitude of scratching”. Further, the “effect on scratching produced by 48/80” value in experiment [3] (diphenhydramine 0.1 mg/kg IP, 30 min pretreatment, SQ 48/80 0.5 mg/mL) is on record as “complete reversal of scratching”; in experiment [3] (higher doses of diphenhydramine (0.3, 1 mg/kg IP)), “suppression of behavior as compared to saline treated animals”. The “effect on chloroquine (1 mg/mL) evoked scratching” value in experiment [3] (30 min pretreatment) is “lower mean microburst count than those treated with chloroquine alone, but this was not statistically significant”; in experiment [3] (30 min pretreatment, listed as Diphenhydramine) it was “no statistically significant effect”. In experiment [3] (diphenhydramine, dose not stated), the “effect on SQ histamine-evoked scratching” value is given as “reversed”. Moreover, in experiment [3] (increasing doses of IP diphenhydramine), the “effect on 48/80-evoked scratching, across doses” value is listed as “attenuated in an equally dose dependent fashion; also recorded: reversed”.

With `Cl.Cl.NCCc1c[nH]cn1` [histamine, Histamine dihydrochloride], the “scratching behavior evoked by the pruritogen” value in experiment [1] is “vigorous scratching”. The “dose response of scratching” value in experiment [1] (dihydrochloride) is listed as “robust dose dependent scratching”.

On to `CCN(CC)CC(=O)Nc1c(C)cccc1C` [lidocaine], for which the “effect on histamine-evoked scratching” value in experiment [3] (SQ lidocaine 2.5% injected into the site 5 min prior to histamine) is reported as “blocked the scratching behavior”.
